Holding throughout (assay): DiFMUP hydrolysis, fluorogenic phosphatase assay
What all share (type): biochemical

For assay [1], the target named is rat PTPRZ-D1D2 (PTPRZ-ICR) (Rattus norvegicus, UniProt Q62656, D2178K/D2179K). The conditions noted are these: substrate DiFMUP; competitive; also bound 1:1 in native MS.
Assay [2] addresses PTPRZ-ΔD2 (ΔD2 mutant of PTPRZ-ICR) (Rattus norvegicus, UniProt Q62656). The conditions noted are these: substrate DiFMUP; competitive; also bound 1:1 in native MS.
In assay [3] the target is rat PTPRZ-D1D2 (PTPRZ-ICR) (Rattus norvegicus, UniProt Q62656). The note with it: substrate DiFMUP; competitive; also bound 1:1 to monomer in native MS.
rat PTPRZ-D1D2 (PTPRZ-ICR) (Rattus norvegicus, UniProt Q62656), sequence (Q62656 1699-2316): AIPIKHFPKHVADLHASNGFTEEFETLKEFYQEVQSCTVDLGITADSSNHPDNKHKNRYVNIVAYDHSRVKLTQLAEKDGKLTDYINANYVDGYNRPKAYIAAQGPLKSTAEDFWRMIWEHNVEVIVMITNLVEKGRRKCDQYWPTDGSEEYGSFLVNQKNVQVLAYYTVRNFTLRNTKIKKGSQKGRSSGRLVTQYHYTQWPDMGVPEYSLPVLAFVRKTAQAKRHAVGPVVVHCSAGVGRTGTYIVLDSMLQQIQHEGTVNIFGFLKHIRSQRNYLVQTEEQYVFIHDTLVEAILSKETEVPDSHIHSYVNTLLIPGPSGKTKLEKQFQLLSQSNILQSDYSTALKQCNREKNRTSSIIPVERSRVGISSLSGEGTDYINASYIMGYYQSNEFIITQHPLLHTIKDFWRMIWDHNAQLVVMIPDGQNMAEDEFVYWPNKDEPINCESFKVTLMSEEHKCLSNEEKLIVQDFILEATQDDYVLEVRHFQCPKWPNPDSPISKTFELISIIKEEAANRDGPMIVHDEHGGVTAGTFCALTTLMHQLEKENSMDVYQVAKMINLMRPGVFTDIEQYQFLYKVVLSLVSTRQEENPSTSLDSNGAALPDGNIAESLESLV

IC50 data for one substance are collected here from publication doi:10.1101/636423v1 (biorxiv, 2019).

One may read the IC50 as the point on the concentration scale where inhibition reaches its midpoint. High values mean weaker potency in that assay, low ones greater potency in that assay.

rat PTPRZ-D1D2 (PTPRZ-ICR) (Rattus norvegicus, UniProt Q62656, D2178K/D2179K), sequence (Q62656 1699-2316 D2178K/D2179K): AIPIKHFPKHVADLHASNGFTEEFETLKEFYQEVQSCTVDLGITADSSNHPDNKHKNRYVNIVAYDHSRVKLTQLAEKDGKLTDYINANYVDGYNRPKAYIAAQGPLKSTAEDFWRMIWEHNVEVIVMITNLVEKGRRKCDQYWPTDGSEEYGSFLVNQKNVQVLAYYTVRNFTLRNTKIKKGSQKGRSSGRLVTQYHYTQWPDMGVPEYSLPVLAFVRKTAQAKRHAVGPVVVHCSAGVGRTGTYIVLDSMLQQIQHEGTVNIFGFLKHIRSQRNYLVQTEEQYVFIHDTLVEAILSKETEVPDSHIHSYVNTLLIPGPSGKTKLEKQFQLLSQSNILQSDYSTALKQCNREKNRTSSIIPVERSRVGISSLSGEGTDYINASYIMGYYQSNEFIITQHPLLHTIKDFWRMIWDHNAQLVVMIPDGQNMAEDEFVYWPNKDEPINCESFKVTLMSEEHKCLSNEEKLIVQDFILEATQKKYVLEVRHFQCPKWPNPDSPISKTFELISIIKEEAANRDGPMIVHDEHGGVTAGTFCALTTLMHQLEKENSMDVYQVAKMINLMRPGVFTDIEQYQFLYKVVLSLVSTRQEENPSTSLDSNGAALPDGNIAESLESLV

For the substance SCB4380, the values for the IC50 in assay [1], in assay [2] and in assay [3] were 370 nM, 400 nM and 380 nM, respectively.
